Patent publication US6740671B2 (priority 2000, dated 2004)

Assay: Foliar penetration of C14-labeled ethaboxam into cucumber
Format: in vivo
Settings: cucumber foliage, 24 hours after spotting; result in words
Method: In order to investigate the relationship of the concentration of polyoxyalkylene alkyl ether and the foliar penetration of ethaboxam, foliar penetration experiment was carried out using radioisotope [C^14]-labeled ethaboxam as follows.
Cucumber seeds were sown in a horticultural bed soil of pots having a diameter of 6 cm and grown under glass for 3 weeks. 10 mg of the formulation prepared in the comparative example was diluted in 10 ml of tap water. 20 μl of the diluted solution was taken and thereto was added 1.0 μCi of ethaboxam labeled with C^14(81.7 μCi/mg) to prepare the diluted ethaboxam formulation labeled with C^14. […]
The plants were cut at a distance of 1 cm from the bottom of soil and the cuts were introduced into 250 ml Erlenmeyer flaska 50 ml of the mixed solution of acetonitrile and distilled water(volume ratio=1:4) was added thereto and then, the flask was plugged and shaken for 1 minute. Radioactivity of C^14-ethaboxam in the solution was measured with a liquid scintillation counter and the residue was combusted with a sample oxidizer to collect C^14-carbon dioxide, which was analyzed with the liquid scintillation counter.
Foliar penetration of ethaboxam is calculated by subtracting radioactivity in the solution from the total radioactivity, which is identical with radioactivity in the residue.

CCNc1nc(CC)c(C(=O)NC(C#N)c2cccs2)s1 (stereo not drawn) [ethaboxam, N-(α-cyano-2-thenyl)-4-ethyl-2-(ethylamino)-5-thiazolecarboxamide]
foliar penetration of ethaboxam: hardly penetrated into plants in the absence of adjuvant
